According to patent US20180258428A1, “METHODS AND COMPOSITIONS FOR THE TREATMENT OF A METABOLIC DISORDER” (Children's Hospital Medical Center, priority 2017, published 2018):
Like-named read-outs stand apart in the source and are kept apart here.

Assays:
primary hepatocytes [1] = assay: Glucose production assay in primary hepatocytes; format: cell-based, mouse; conditions: primary hepatocytes from L-Ago2 WT and KO mice, 100 or 200 μM
Experimental: To investigate how Ago2 regulates glucose metabolism, Applicant first examined capacities of hepatic gluconeogenesis in Ago2-deficient primary hepatocytes. […] Applicant additionally asked if Ago2 regulates the fundamental catabolic capacities of hepatocytes. To examine the glycolytic rate, the extracellular acidification rate (ECAR) was determined in primary hepatocytes upon addition of glucose. […] Glycolysis produces pyruvate that is used as an energy source for the citric acid cycle.
Glucose production assay. Mouse primary hepatocytes were cultured in 12-well plates (0.4×10^6 cells per well) in William E supplemented with 10% FBS. Next day, cells were cultured with 1 ml of DMEM (5.5 mM glucose) supplemented with 10% FBS. Post plating for 21 hours, cells were washed twice with PBS and were subjected 3-4 hours to serum starvation with FBS-free DMEM (5.5 mM glucose). After washing twice with PBS, cells were cultured in 0.4 ml of glucose production buffer consisting of glucose-free DMEM (pH 7.4) without phenol red supplemented with 20 mM sodium lactate, 2 mM sodium pyruvate, 2 mM L-glutamine and 15 mM HEPES^62. Cells were incubated at 37° C. for 4.5 hours with or without Bt-cAMP or pCPT-cAMP. Both medium and cells were collected. The glucose concentration was measured with the Autokit Glucose (WAKO) and was normalized by the total protein content.

AMPK [2] = assay: AMPK activation in primary hepatocytes with metformin (western blot); format: cell-based, mouse; conditions: Ago2-deficient primary hepatocytes versus controls, 1 mM metformin
Experimental: Primary hepatocytes. Hepatocytes were isolated from liver of 12-14 weeks old L-Ago2 WT and 607 L-Ago2 KO mice by a two-step perfusion method as described previously^59 with a slight modification. Briefly, the liver was first perfused with 30 ml of HBSS supplemented with 10 mM HEPES, 0.5 mM EGTA and 5 mM glucose and then digested with 35 mL of Collagenase X 610 (WAKO) at 100 U/mL dissolved in HBSS buffer supplemented with 10 mM HEPES and 5 mM CaCl2. Liver was collected after perfusion and hepatocyte were released and sedimented at 60 G for 2 mM. Hepatocyte suspension was then layered on a 40% percoll solution (GE Healthcare Life Sciences) and centrifuged at 800 G for 10 min. The alive hepatocytes were recovered from the bottom of the tube and seeded on culture plates.
Protein extraction and immunoblot analysis. To prepare protein lysates, cells were washed with cold PBS, followed by lysis in cold mammalian cell lysis buffer [MCLB: 50 mM Tris-HCl (pH 7.4), 150 mM NaCl, 10 mM NaF, 5% glycerol, 1% NP-40, 1% protease and phosphatase inhibitor cocktail]. […]

[3] = Fasting blood glucose in HFD-fed mice before and after oral metformin; format: in vivo, mouse; conditions: oral metformin 80 mg/kg/day for 7 days
Experimental: (§1) Mice. Animal care and experimental procedures were performed according to procedures approved by the animal care committees of our medical center. […] The ALZET osmotic pump were used to deliver 10 nM S961 or vehicle (PBS) in a two-week period. GTTs were performed by intraperitoneal glucose injection (1.5 g/kg) following an overnight food withdrawal for 14 hours. […] Mouse plasma insulin levels were measured using Mouse Ultrasensitive Insulin ELISA kit (ALPCO).

MD-miRNAs = assay: Hepatic miRNA and mRNA expression after S961 or S961 plus metformin treatment; format: in vivo, mouse; conditions: 2 weeks
From the text: Expression profiles that assessed the effect of insulin insufficiency on miRNAs in the liver categorized four different classes of miRNAs; (I) dominantly expressed in L-Ago2 WT, (II) induced by S961 in both L-Ago2 WT and KO, (III) suppressed by S961 in both L-Ago2 WT and KO, and (IV) expressed in L-Ago2 KO (FIG. 3d). […] These analyses implicate hepatic Ago2-dependent miRNAs play a role in the disruption of glucose metabolism under the condition of insulin insufficiency.
Quantitative real-time PCR analysis. For mRNA quantification, total RNA was extracted using Trizol reagent (Invitrogen). Total RNA was converted to first strand cDNA using SuperScript® VILO™ cDNA Synthesis Kit (Invitrogen). Quantitative real-time PCR analysis was performed using SYBR Select Master Mix (Applied Biosystems) in a real-time PCR machine (QuantStudio 6 Flex Real-Time PCR system; Thermo Fisher Scientific). To normalize expression data, β-actin mRNA was used as a housekeeping gene. For miRNA quantification, total RNA was extracted using miRNeasy Micro Kit (Qiagen) according to manufacturer's instructions. TaqMan miRNA assays (Life Technologies) were used and real-time PCR were carried out for mature miRNA quantification. Primary miRNAs were quantified using TaqMan […] assays. Sno202 and β-actin were used as internal controls.
High-throughput sequencing of miRNA. […]

primary hepatocytes [4] = assay: ATP/ADP ratio assay in primary hepatocytes with metformin; format: cell-based, mouse; conditions: Ago2-deficient primary hepatocytes, 1 mM metformin
From the text: To further examine if Ago2 deficiency accelerates cellular energy consumption associated with protein synthesis, Applicant treated primary hepatocytes with metformin, which is an anti-diabetic drug and inhibits mitochondrial respiratory-chain complex I activity restricting ATP generation^40, and measured ATP/ADP levels. […] To directly investigate the effect of Ago2-deficiency on protein synthesis in hepatocytes, Applicant measured the levels of nascent protein synthesis. […] By restricting energy supply using phenformin and rotenone, both of which inhibit mitochondrial respiratory-chain complex I activity, the levels of nascent protein synthesis in Ago2-deficient hepatocytes were equivalent or still higher compared to those in controls (FIG. 6G).
Primary hepatocytes. Hepatocytes were isolated from liver of 12-14 weeks old L-Ago2 WT and 607 L-Ago2 KO mice by a two-step perfusion method as described previously^59 with a slight modification. […]
ATP/ADP ratio assay. The ATP/ADP ratio in the mouse liver extract or primary hepatocytes was determined using a bioluminescent ATP/ADP Ratio Assay Kit (Abcam) according to the manufacturer's instructions. […]

[5] = for glucose tolerance (GTT): one week; for hepatic glycogen contents (S961-induced glycogenolysis) / serum insulin levels (S961-induced hyperinsulinemia): 2 weeks post S961 with metformin
Experimental: as §1

AMPK [6] = assay: AMPK activation in MEFs with cycloheximide (western blot); format: cell-based, mouse; conditions: 25 μg/ml cycloheximide for 8 hours
From the text: Since Ago2 slicer activity uniquely regulates RNA silencing, Applicant then asked if the slicer activity is involved in the regulation of energy consumption and AMPK activation. […] More importantly, Applicant also observed that AMPK activity, assessed by phosphorylation levels of AMPKα and ACC, was higher in Ago2-deficient MEFs under serum starvation condition (FIG. 16A). […] While activated AMPKα is known to suppress mRNA translation^41, levels of nascent protein synthesis in Ago2-deficient MEFs are increased compared to the cells reconstituted with WT Ago2 (FIG. 16B). To investigate if enhanced protein synthesis reasons AMPK activation in Ago2-deficiency, Applicant treated MEFs with cycloheximide (CHX), a protein synthesis inhibitor, and monitored AMPK activation.
Mouse embryonic fibroblasts. Ago2-deficient fibroblasts reconstituted with Ago2 WT or DA mutant that were kindly provided by Dr. Eric Lai^22. Applicant generated Ago2^fl/fl MEFs through the 3T3 protocol and performed an adenovirus-mediated gene transfer for Cre or LacZ expression to obtain Ago2-deficient MEFs^60. MEF cells were cultured in Dulbecco Modified Eagle Medium (DMEM) (Thermo Fisher Scientific: #11965) supplemented with 10% FBS. For western blot analyses of AMPK, MEF cells were plated at a density of 1×10^5 cells per well of 6-well plate for overnight. […]

CCCC(=O)Nc1ncnc2c1ncn2[C@@H]1O[C@@H]2COP(=O)(O)O[C@H]2[C@H]1OC(=O)CCC [Bt-cAMP, dibutyryl cyclic AMP]
glucose production (primary hepatocytes [1]): similarly induced between genotypes

Nc1ncnc2c1nc(Sc1ccc(Cl)cc1)n2[C@@H]1O[C@@H]2COP(=O)([O-])O[C@H]2[C@H]1O.[Na+] [pCPT-cAMP, 8-(4-Chlorophenylthio)adenosine 3′,5′-cyclic monophosphate]
glucose production (primary hepatocytes [1]): similarly induced between genotypes

CN(C)C(=N)N=C(N)N [metformin]
levels of metformin-induced AMPK activation (AMPK [2]): significantly higher than that in controls | fasting blood glucose levels ([3]; L-Ago2 KO mice fed HFD): no change upon metformin treatment | fasting blood glucose levels ([3]; L-Ago2 WT mice fed HFD): reduced fasting blood glucose levels | expression of MD-miRNAs in liver (MD-miRNAs; Ago2-deficient liver): did not affect their expression levels | expression of S961-induced MD-miRNAs in liver (MD-miRNAs; L-Ago2 WT mice): drastic suppression | relative ATP/ADP levels (primary hepatocytes [4]): rapidly decreased | glucose tolerance (GTT) ([5]; L-Ago2 KO mice treated with S961, metformin 150 mg/kg/day via osmotic pumps): no change in glucose tolerance | hepatic glycogen contents (S961-induced glycogenolysis) ([5]; L-Ago2 KO mice): blunted | serum insulin levels (S961-induced hyperinsulinemia) ([5]; L-Ago2 KO mice): blunted | glucose tolerance (GTT) ([5]; L-Ago2 WT mice treated with S961, metformin 150 mg/kg/day via osmotic pumps): improved glucose tolerance | hepatic glycogen contents (S961-induced glycogenolysis) ([5]; L-Ago2 WT mice): alleviated | serum insulin levels (S961-induced hyperinsulinemia) ([5]; L-Ago2 WT mice): alleviated S961-induced hyperinsulinemia

C[C@@H]1C[C@@H]([C@H](O)CC2CC(=O)NC(=O)C2)C(=O)[C@@H](C)C1 [cycloheximide]
AMPK activation (AMPK [6]; Ago2-deficient MEFs): more robust | AMPK activation (AMPK [6]; WT MEFs): reduction of AMPK activation
